The structures appear in SMILES notation.

The target of one test is T1, hT1R2/hT1R3 sweet receptor (Homo sapiens, UniProt Q7RTX0+Q8TE23).
T1 construct: expressed in transfected cells; host or cells: HEK293 derivative stably expressing Gα15, clone S-9
T1 sequence (Q8TE23 20-839): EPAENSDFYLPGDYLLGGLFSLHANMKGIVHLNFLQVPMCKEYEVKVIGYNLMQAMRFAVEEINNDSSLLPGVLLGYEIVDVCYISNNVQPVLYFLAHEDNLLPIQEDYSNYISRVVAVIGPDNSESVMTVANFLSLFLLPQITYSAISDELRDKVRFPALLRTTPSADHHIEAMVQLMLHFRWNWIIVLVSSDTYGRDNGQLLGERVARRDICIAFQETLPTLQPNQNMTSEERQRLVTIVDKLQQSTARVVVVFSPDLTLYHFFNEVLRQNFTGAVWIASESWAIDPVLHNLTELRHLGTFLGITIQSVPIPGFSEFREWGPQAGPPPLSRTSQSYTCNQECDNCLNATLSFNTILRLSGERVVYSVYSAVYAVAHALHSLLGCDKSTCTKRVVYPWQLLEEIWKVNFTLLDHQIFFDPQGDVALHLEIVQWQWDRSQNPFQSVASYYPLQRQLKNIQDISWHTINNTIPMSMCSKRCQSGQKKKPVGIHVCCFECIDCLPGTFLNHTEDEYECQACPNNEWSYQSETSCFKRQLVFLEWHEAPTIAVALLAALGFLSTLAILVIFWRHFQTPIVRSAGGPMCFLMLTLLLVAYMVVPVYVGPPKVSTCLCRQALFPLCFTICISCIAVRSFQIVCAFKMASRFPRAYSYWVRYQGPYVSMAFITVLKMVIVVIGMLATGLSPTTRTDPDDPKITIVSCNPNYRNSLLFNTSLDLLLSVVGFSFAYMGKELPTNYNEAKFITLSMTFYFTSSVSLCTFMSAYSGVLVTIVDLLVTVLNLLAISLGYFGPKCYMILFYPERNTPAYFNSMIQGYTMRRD
T1 sequence (Q7RTX0 21-852): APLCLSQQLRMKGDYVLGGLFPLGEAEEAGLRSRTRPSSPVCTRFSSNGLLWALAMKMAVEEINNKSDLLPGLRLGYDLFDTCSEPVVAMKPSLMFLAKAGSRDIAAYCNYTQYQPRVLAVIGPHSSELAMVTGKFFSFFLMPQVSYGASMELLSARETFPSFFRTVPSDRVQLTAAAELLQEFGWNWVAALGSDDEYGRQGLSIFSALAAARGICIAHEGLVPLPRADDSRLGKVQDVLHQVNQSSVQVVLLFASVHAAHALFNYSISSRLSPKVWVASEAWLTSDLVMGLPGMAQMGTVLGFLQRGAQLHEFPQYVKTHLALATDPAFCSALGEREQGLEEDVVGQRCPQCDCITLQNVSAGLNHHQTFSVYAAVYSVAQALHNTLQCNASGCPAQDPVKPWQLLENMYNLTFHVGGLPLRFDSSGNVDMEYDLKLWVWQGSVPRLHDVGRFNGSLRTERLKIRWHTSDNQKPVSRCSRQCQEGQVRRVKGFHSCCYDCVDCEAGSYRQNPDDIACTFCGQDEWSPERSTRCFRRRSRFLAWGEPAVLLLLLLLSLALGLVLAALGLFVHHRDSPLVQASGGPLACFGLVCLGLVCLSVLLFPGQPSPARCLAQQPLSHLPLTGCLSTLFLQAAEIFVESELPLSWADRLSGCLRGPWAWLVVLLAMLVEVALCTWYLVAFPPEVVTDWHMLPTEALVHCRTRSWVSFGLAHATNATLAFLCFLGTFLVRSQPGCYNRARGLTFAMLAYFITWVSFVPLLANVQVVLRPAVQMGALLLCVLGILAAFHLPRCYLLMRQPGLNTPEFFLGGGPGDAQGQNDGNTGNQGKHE
Nature of the test: In vitro hT1R2/hT1R3 sweet taste receptor activation assay (FLIPR, dose response). Format: cell-based. As to conditions: Table E, Sweet Enhancer Amides; read-out: Sweet EC50. The procedure:
Activity was determined using an automated fluorometric imaging assay on a FLIPR instrument (Fluorometric Intensity Plate Reader, Molecular Devices, Sunnyvale, Calif.) (designated FLIPR assay). […] S-9 cells were grown for 24 hours at 37° C. S-9 cells were then loaded with the calcium dye Fluo-3AM (Molecular Probes, Eugene, Oreg.), 4 µM in a phosphate buffered saline (D-PBS) (Invitrogen, Carlsbad, Calif.), for 1 hour at room temperature. After replacement with 25 µl D-PBS, stimulation was performed in the FLIPR instrument and at room temperature by the addition of 25 µl D-PBS supplemented with different stimuli at concentrations corresponding to twice the desired final level.
For dose-responses analysis, stimuli were presented in duplicates at 10 different concentrations ranging from 60 nM to 30 µM. Activities were normalized to the response obtained with 400 mM D-fructose, a concentration that elicits maximum receptor response. EC50s were determined using a non-linear regression algorithm (using a Senomyx, Inc. software), where the Hill slope, bottom asymptotes and top asymptotes were allow to vary.
For `Cc1ccc(NC(=O)N2Cc3cccc(C)c3C2)c(C)c1` [Example E115, N-(2,4-dimethylphenyl)-4-methylisoindoline-2-carboxamide], the EC50 turned out to be 250 nM. On the same count and under the same terms, as for `COc1cc(F)c(NC(=O)N2Cc3cccc(C)c3C2)c(OC)c1` [Example E117, N-(2-fluoro-4,6-dimethoxyphenyl)-4-methylisoindoline-2-carboxamide], the figure is 90 nM; as for `Cc1c(F)c(F)c(C(=O)N[C@@H](C)C(C)(C)C)c(F)c1F` [Example E38, (S)-N-(3,3-dimethylbutan-2-yl)-2,3,5,6-tetrafluoro-4-methylbenzamide], 900 nM; as for `C=CCc1c(F)c(F)c(C(=O)N[C@@H](C)C(C)(C)C)c(F)c1F` [Example E130, (S)-4-allyl-N-(3,3-dimethylbutan-2-yl)-2,3,5,6-tetrafluorobenzamide], 430 nM. As to `CCCCC(C)NC(=O)c1c(F)c(F)c(C)c(F)c1F` (stereo not drawn) [Example E34, 2,3,5,6-tetrafluoro-N-(hexan-2-yl)-4-methylbenzamide], the EC50 is 710 nM. On the same count and under the same terms, under `CCc1nocc1C(=O)N[C@@H]1CCCc2c(C)cc(C)cc21` [Example E128, (R)-N-(5,7-dimethyl-1,2,3,4-tetrahydronaphthalen-1-yl)-3-ethylisoxazole-4-carboxamide] stands 1240 nM. On the same count and under the same terms, under `O=C(N[C@@H]1CCCc2ccccc21)c1cccc(Cl)c1` [Example E22, (R)-3-chloro-N-(1,2,3,4-tetrahydronaphthalen-1-yl)benzamide] stands 4520 nM. The same measure, in the same setting: as for `Cc1nocc1C(=O)N[C@@H]1CCCc2ccccc21` [Example E25, (R)-3-methyl-N-(1,2,3,4-tetrahydronaphthalen-1-yl)isoxazole-4-carboxamide], the figure is 7790 nM; as for `CC1CCCCC1NC(=O)c1cncc(Br)c1` (stereo not drawn) [Example E62, 5-bromo-N-(2-methylcyclohexyl)nicotinamide], 2420 nM; as for `CC1CCCCC1NC(=O)c1cccc(C(F)(F)F)c1F` (stereo not drawn) [Example E61, 2-fluoro-N-(2-methylcyclohexyl)-3-(trifluoromethyl)benzamide], 2400 nM. Take `Cc1c(F)c(F)c(C(=O)NC2CCCC(C)C2C)c(F)c1F` (stereo not drawn) [Example E43, N-(2,3-dimethylcyclohexyl)-2,3,5,6-tetrafluoro-4-methylbenzamide]: the EC50 was 1080 nM. Still for that read-out and setting: as for `O=C(Nc1cccc2c1CCCC2)N1CCc2ccccc21` [Example E119, N-(5,6,7,8-tetrahydronaphthalen-1-yl)indoline 1-carboxamide], the figure is 1060 nM. With `CC1CCCCC1NC(=O)c1ccnc(F)c1` (stereo not drawn) [Example E65, 2-fluoro-N-(2-methylcyclohexyl)isonicotinamide], the EC50 was found to be 2830 nM.

Take `O=C(Nc1ccc(F)c(F)c1F)N1Cc2ccccc2C1` [Example E103, N-(2,3,4-trifluorophenyl)isoindoline-2-carboxamide]: the EC50 turned out to be 2580 nM. Same read-out and setting: as for `COc1cccc2c1CCCC2NC(=O)c1cccc(C)c1O` (stereo not drawn) [Example E122, 2-hydroxy-N-(5-methoxy-1,2,3,4-tetrahydronaphthalen-1-yl)-3-methylbenzamide], the figure is 1950 nM; as for `COc1ccc(NC(=O)N2Cc3ccccc3C2)cc1` [Example E108, N-(4-methoxyphenyl)isomdoline-2-carboxamide], 4990 nM; as for `CC1CCCC(NC(=O)c2c(Cl)cccc2Cl)C1C` (stereo not drawn) [Example E64, 2,6-dichloro-N-(2,3-dimethylcyclohexyl)benzamide], 2770 nM. Still for that read-out and setting: under `COc1ccc(NC(=O)N2Cc3cccc(C)c3C2)c(F)c1` [Example E118, N-(2-fluoro-4-methoxyphenyl)-4-methylisoindoline-2-carboxamide] stands 100 nM; under `Cc1cccc(NC(=O)N2CCc3ccccc32)c1C` [Example E120, N-(2,3-dimethylphenyl)indoline-1-carboxamide], 2380 nM. Still for that read-out and setting: under `COc1cc(C(=O)NC2CCCCC2C)cc(Cl)n1` (stereo not drawn) [Example E40, 2-chloro-6-methoxy-N-(2-methylcyclohexyl)isonicotinamide] stands 950 nM; under `COc1c(Cl)ccc(Cl)c1C(=O)Nc1ccccc1F` [Example E84, 3,6-dichloro-N-(2-fluorophenyl)-2-methoxybenzamide], 830 nM. With `CCOc1c(F)c(F)c(C(=O)N[C@@H](C)C(C)C)c(F)c1F` [Example E133, (S)-4-ethoxy-2,3,5,6-tetrafluoro-N-(3-methylbutan-2-yl)benzamide], the EC50 was 600 nM. The same measure, in the same setting: under `O=C(N[C@@H]1CCCc2ccccc21)c1cc(O)ccc1O` [Example E24, (R)-2,5-dihydroxy-N-(1,2,3,4-tetrahydronaphthalen-1-yl)benzamide] stands 6040 nM; under `COc1ccc2c(c1)CCCC2NC(=O)c1cccc(Cl)c1O` (stereo not drawn) [Example E5, 3-chloro-2-hydroxy-N-(6-methoxy-1,2,3,4-tetrahydronaphthalen-1-yl)benzamide], 1610 nM. Still for that read-out and setting: as for `Cc1c(F)c(F)c(C(=O)NC(C)CCC(C)C)c(F)c1F` (stereo not drawn) [Example E70, 2,3,5,6-tetrafluoro-4-methyl-N-(5-methylhexan-2-yl)benzamide], the figure is 3200 nM; as for `Cc1c(F)c(F)c(C(=O)N[C@H](C)C(C)C)c(F)c1F` [Example E47, (R)-2,3,5,6-tetrafluoro-4-methyl-N-(3-methylbutan-2-yl)benzamide], 1250 nM. Same read-out and setting: under `Cc1cc(C)cc(C(=O)NC2CCCCC2C)c1` (stereo not drawn) [Example E82, 3,5-dimethyl-N-(2-methylcyclohexyl)benzamide] stands 4480 nM.

The test is the same for the next values; noted with them: read-out: EC50 for activation of a hT1R2/hT1R3 sweet receptor expressed in an HEK293 cell line.
For `Cc1ccc2c(c1)CN(C(=O)Nc1c(F)cc(Br)cc1F)C2` [Example 197, N-(4-Bromo-2,6-difluorophenyl)-5-methylisoindoline-2-carboxamide], the EC50 is 520 nM. In the case of `CCCCc1nocc1C(=O)N[C@@H]1CCCc2c(OC)cccc21` [Example 189, (R)-3-Butyl-N-(5-methoxy-1,2,3,4-tetrahydronaphthalen-1-yl)isoxazole-4-carboxamide], the EC50 worked out at 360 nM. For the compound `CC1CCc2ccccc2C1NC(=O)c1cccc(Cl)c1O` (stereo not drawn) [Example 179, 3-Chloro-2-hydroxy-N-(2-methyl-1,2,3,4-tetrahydronaphthalen-1-yl)benzamide], the EC50 was 380 nM.

Take `COc1cccc2c1CCC(C)C2NC(=O)c1cccc(Cl)c1O` (stereo not drawn) [Example 186, 3-Chloro-2-hydroxy-N-(5-methoxy-2-methyl-1,2,3,4-tetrahydronaphthalen-1-yl)benzamide]: the EC50 came to 500 nM.

With `COc1cc(C)c(C(=O)NC2CCCCC2C)c(C)c1` (stereo not drawn) [Example 169, 4-methoxy-2,6-dimethyl-N-(2-methylcyclohexyl)benzamide], the EC50 turned out to be 2100 nM. Still for that read-out and setting: under `O=C(Nc1c(F)cc(Br)cc1F)N1Cc2ccc(Br)cc2C1` [Example 198, 5-Bromo-N-(4-bromo-2,6-difluorophenyl)isoindoline-2-carboxamide] stands 420 nM.
